In the Kinase Knowledgebase extract (Sharma et al. 2016):

Molecular target: PIK3CB;PIK3CG;PIK3CD;PIK3CA (human) (UniProt P48736)
Assay: Enzyme Assay

Structure (SMILES)	IC50 [nM]
O=C(c1nn(-c2cccc(-c3ccccc3)c2)c2c1CS(=O)(=O)c1ccccc1-2)N1CCOCC1	764
CN1CCN(C(=O)c2cccc(-n3nc(C(=O)N4CCOCC4)c4c3-c3ccccc3S(=O)(=O)C4)c2)CC1	253
COc1cccc(Cn2nc(C(=O)N3CCOCC3)c3c2-c2ccccc2S(=O)(=O)C3)c1	1170
O=C(c1nn(-c2cccc(-c3ncon3)c2)c2c1CS(=O)(=O)c1ccccc1-2)N1CCOCC1	6690
O=C(c1nn(-c2ccccc2)c2c1CS(=O)(=O)c1ccc(F)cc1-2)N1CCOCC1	987
Cn1nc(C(=O)N2CCOCC2)c2c1-c1cc([N+](=O)[O-])ccc1S(=O)(=O)C2	2770
COCc1cccc(-n2nc(C(=O)N3CCOCC3)c3c2-c2ccccc2S(=O)(=O)C3)c1	997
O=C(c1nn(C2CCCN(CCC(F)(F)F)C2)c2c1CS(=O)(=O)c1ccccc1-2)N1CCOCC1 (configuration not stated)	149
CC1CN(Cc2ccc(-n3nc(C(=O)N4CCOCC4)c4c3-c3ccccc3S(=O)(=O)C4)cc2)CCO1 (configuration not stated)	105
O=C(c1nn(C2CCCN(CC3CCOC3)C2)c2c1CS(=O)(=O)c1ccccc1-2)N1CCOCC1 (configuration not stated)	98
O=C(c1nn(-c2cccc(CN3CCCC(F)(F)C3)c2)c2c1CS(=O)(=O)c1ccccc1-2)N1CCOCC1	1540
CC(C)(C)OC(=O)N1CCCC(n2nc(C(=O)N3CCOCC3)c3c2-c2ccccc2S(=O)(=O)C3)CC1 (configuration not stated)	824
CC(C)(c1ccc(-n2nc(C(=O)N3CCOCC3)c3c2-c2ccccc2S(=O)(=O)C3)cc1)N1CCOCC1	584
CS(=O)(=O)C1CCN(Cc2ccc(-n3nc(C(=O)N4CCOCC4)c4c3-c3ccccc3S(=O)(=O)C4)cc2)C1 (configuration not stated)	920
O=C(c1nc(-c2ccccc2)n2c1CS(=O)(=O)c1ccccc1-2)N1CCOCC1	2740
O=C(c1nn(CCc2ccccn2)c2c1CS(=O)(=O)c1ccccc1-2)N1CCOCC1	1920
CCOc1ccc2c(c1)S(=O)(=O)Cc1c(C(=O)N3CCOCC3)nn(-c3ccc(CN4CCOCC4)cc3)c1-2	250
O=C(c1nn(-c2cccc(CN3CC(F)(F)C3)c2)c2c1CS(=O)(=O)c1ccccc1-2)N1CCOCC1	643
O=C(c1nn(-c2ccc(CN3CCOCC3)cc2)c2c1CS(=O)(=O)c1ccc(F)cc1-2)N1CCOCC1	555
COCCN1CCC[C@@H](n2nc(C(=O)N3CCOCC3)c3c2-c2ccccc2S(=O)(=O)C3)C1	3550

Structure (SMILES)	IC50 [nM]
COC(=O)c1ccc(Cn2nc(C(=O)N3CCOCC3)c3c2-c2ccccc2S(=O)(=O)C3)o1	431
O=C(c1nn(-c2ccc(CN3CC(F)(F)C3)cc2)c2c1CS(=O)(=O)c1ccccc1-2)N1CCOCC1	395
COCCn1nc(C(=O)N2CCOCC2)c2c1-c1ccccc1S(=O)(=O)C2	1290
O=C(c1nn(C2CCCN(CCC3CCOCC3)C2)c2c1CS(=O)(=O)c1c(F)cccc1-2)N1CCOCC1 (configuration not stated)	22
CN1CCC(Cn2nc(C(=O)N3CCOCC3)c3c2-c2ccccc2S(=O)(=O)C3)CC1	2650
Cc1cccc2c1S(=O)(=O)Cc1c(C(=O)N3CCOCC3)nn(-c3ccccc3)c1-2	1740
CC(C)(C)OC(=O)N1CCC(Cn2nc(C(=O)N3CCOCC3)c3c2-c2ccccc2S(=O)(=O)C3)CC1	495
CN(C)c1ccc2c(c1)S(=O)(=O)Cc1c(C(=O)N3CCOCC3)nn(-c3ccccc3)c1-2	5020
COCCCn1nc(C(=O)N2CCOCC2)c2c1-c1ccccc1S(=O)(=O)C2	907
COCCOCCN1CCCC(n2nc(C(=O)N3CCOCC3)c3c2-c2ccccc2S(=O)(=O)C3)C1 (configuration not stated)	635
COC(=O)CCN1CCC[C@H](n2nc(C(=O)N3CCOCC3)c3c2-c2ccccc2S(=O)(=O)C3)C1	48
CC(C)(C)OC(=O)N1CCC(n2nc(C(=O)N3CCOCC3)c3c2-c2ccccc2S(=O)(=O)C3)C1 (configuration not stated)	1200
CS(=O)(=O)Nc1ccc2c(c1)-c1c(c(C(=O)N3CCOCC3)nn1-c1ccccc1)CS2(=O)=O	1310
O=C(c1nn(-c2cccc(CN3CCSCC3)c2)c2c1CS(=O)(=O)c1ccccc1-2)N1CCOCC1	232
COCCCC1c2c(C(=O)N3CCOCC3)nn(-c3ccccc3)c2-c2ccccc2S1(=O)=O (configuration not stated)	5070
COc1cccc2c1S(=O)(=O)Cc1c(C(=O)N3CCOCC3)nn([C@H]3CCCN(CCN4CCOCC4)C3)c1-2	59
O=C(c1nn(-c2ccc(CN3CCOCC3)cc2)c2c1CS(=O)(=O)c1ccccc1-2)N1CCOCC1	170
O=C(c1ccoc1)N1CCC[C@H](n2nc(C(=O)N3CCOCC3)c3c2-c2ccccc2S(=O)(=O)C3)C1	750
O=C(c1nn(C2CCN(CCN3CCOCC3)C2)c2c1CS(=O)(=O)c1ccccc1-2)N1CCOCC1 (configuration not stated)	192
O=C(c1nn(-c2cccc(CN3CCOCC3)c2)c2c1CS(=O)(=O)c1ccccc1-2)N1CCOCC1	1300

Structure (SMILES)	IC50 [nM]
COCCN1CCC[C@H](n2nc(C(=O)N3CCOCC3)c3c2-c2ccccc2S(=O)(=O)C3)C1	40
O=C(c1nn(CC2CCCO2)c2c1CS(=O)(=O)c1ccccc1-2)N1CCOCC1 (configuration not stated)	1560
O=C(c1nn(-c2ccccc2)c2c1CS(=O)(=O)c1ccc(Br)cc1-2)N1CCOCC1	1300
COCCNCCN1CCC[C@H](n2nc(C(=O)N3CCOCC3)c3c2-c2ccccc2S(=O)(=O)C3)C1	34
CN1CCCC1CCn1nc(C(=O)N2CCOCC2)c2c1-c1ccccc1S(=O)(=O)C2 (configuration not stated)	1230
O=C(c1nn(C2CCCN(CCC3CCCCC3)C2)c2c1CS(=O)(=O)c1ccccc1-2)N1CCOCC1 (configuration not stated)	155
O=C(c1nn(C2CCN(CCn3ccnc3)C2)c2c1CS(=O)(=O)c1ccccc1-2)N1CCOCC1 (configuration not stated)	166
COC1CCCN(C(=O)c2cccc(-n3nc(C(=O)N4CCOCC4)c4c3-c3ccccc3S(=O)(=O)C4)c2)C1 (configuration not stated)	246
O=C(c1nn(-c2ccccc2Br)c2c1CS(=O)(=O)c1ccccc1-2)N1CCOCC1	5500
O=C(c1nn(-c2ccc(CN3CCOCC3)nc2)c2c1CS(=O)(=O)c1ccccc1-2)N1CCOCC1	614
O=C(c1nn(-c2ccccc2)c2c1CS(=O)(=O)c1ccc([N+](=O)[O-])cc1-2)N1CCOCC1	1830
CCCCn1nc(C(=O)N2CCOCC2)c2c1-c1ccccc1S(=O)(=O)C2	377
COc1cccc(-n2nc(C(=O)N3CCOCC3)c3c2-c2ccccc2S(=O)(=O)C3)c1	1320
O=C(c1nn(-c2ccccc2)c2c1C(CC1CC1)S(=O)(=O)c1ccccc1-2)N1CCOCC1 (configuration not stated)	3900
O=C(c1nn([C@@H]2CCCN(CCN3CCOCC3)C2)c2c1CS(=O)(=O)c1c(Cl)cccc1-2)N1CCOCC1	5230
O=C(c1nn([C@H]2CCCN(CCN3CCOCC3)C2)c2c1CS(=O)(=O)c1ccccc1-2)N1CCOCC1	16
COc1ccc2c(c1)-c1c(c(C(=O)N3CCOCC3)nn1[C@H]1CCCN(CCN3CCOCC3)C1)CS2(=O)=O	28
O=C(c1nn([C@H]2CCCN(CCN3CCCC3)C2)c2c1CS(=O)(=O)c1ccccc1-2)N1CCOCC1	7
O=C(c1nn(-c2cccc(Br)c2)c2c1CS(=O)(=O)c1ccccc1-2)N1CCOCC1	616

Continued by falling IC50, values first:

IC50 [nM]	Structure (SMILES)
5270	Cn1nc(C(=O)N2CCOCC2)c2c1-c1ccccc1S(=O)(=O)C2Cc1ccccc1 (configuration not stated)
3960	O=C(c1nn(Cc2ccccn2)c2c1CS(=O)(=O)c1ccccc1-2)N1CCOCC1
3940	O=C(c1nn(-c2ccc(N3CCOCC3)cc2)c2c1CS(=O)(=O)c1ccccc1-2)N1CCOCC1
3110	CN(C)CCCn1nc(C(=O)N2CCOCC2)c2c1-c1ccccc1S(=O)(=O)C2
2820	CC(=O)N1CCC(Cn2nc(C(=O)N3CCOCC3)c3c2-c2ccccc2S(=O)(=O)C3)CC1
1780	CS(=O)(=O)Nc1cccc(-n2nc(C(=O)N3CCOCC3)c3c2-c2ccccc2S(=O)(=O)C3)c1
1110	CN(C)Cc1cccc(-n2nc(C(=O)N3CCOCC3)c3c2-c2ccccc2S(=O)(=O)C3)c1
1090	Cn1nc(C(=O)N2CCOCC2)c2c1-c1cccc(Br)c1S(=O)(=O)C2
995	O=C(c1nn(-c2ccc(C3(CN4CCOCC4)CC3)cc2)c2c1CS(=O)(=O)c1ccccc1-2)N1CCOCC1
824	O=C(c1nn(C2CCOCC2)c2c1CS(=O)(=O)c1sccc1-2)N1CCOCC1
815	O=C(c1nn(C2CCCN(CCO)C2)c2c1CS(=O)(=O)c1ccccc1-2)N1CCOCC1 (configuration not stated)
808	CC(C)(C)OC(=O)N1CCC(n2nc(C(=O)N3CCOCC3)c3c2-c2ccccc2S(=O)(=O)C3)CC1
711	O=C(c1nn(C2CCCN(CCc3ccccc3)C2)c2c1CS(=O)(=O)c1ccccc1-2)N1CCOCC1 (configuration not stated)
679	O=C(c1nn(C2CCCN(CCC(C(F)(F)F)C(F)(F)F)C2)c2c1CS(=O)(=O)c1ccccc1-2)N1CCOCC1 (configuration not stated)
624	O=C(c1nn(Cc2cc(Cl)cs2)c2c1CS(=O)(=O)c1ccccc1-2)N1CCOCC1
437	O=C(c1nn(-c2cccc(CN3CCC(F)CC3)c2)c2c1CS(=O)(=O)c1ccccc1-2)N1CCOCC1
421	CS(=O)(=O)NCc1ccc(-n2nc(C(=O)N3CCOCC3)c3c2-c2ccccc2S(=O)(=O)C3)cc1
188	COCCN1CCCC(n2nc(C(=O)N3CCOCC3)c3c2-c2ccccc2S(=O)(=O)C3)C1 (configuration not stated)
164	COCCNCc1ccc(-n2nc(C(=O)N3CCOCC3)c3c2-c2ccccc2S(=O)(=O)C3)cc1
120	CC1(C)CN(Cc2ccc(-n3nc(C(=O)N4CCOCC4)c4c3-c3ccccc3S(=O)(=O)C4)cc2)CCO1
96	COCCN1CCC[C@H](n2nc(C(=O)N3CCOCC3)c3c2-c2cccc(C)c2S(=O)(=O)C3)C1
65	C[C@@H]1CN(CCN2CCC[C@H](n3nc(C(=O)N4CCOCC4)c4c3-c3ccccc3S(=O)(=O)C4)C2)C[C@H](C)O1
62	COc1cccc2c1S(=O)(=O)Cc1c(C(=O)N3CCOCC3)nn([C@H]3CCCN(CCN4CC(F)C4)C3)c1-2
57	O=C(c1nn(C2CCN(CC3CCOC3)C2)c2c1CS(=O)(=O)c1c(F)cccc1-2)N1CCOCC1 (configuration not stated)
54	O=C(c1nn(C2CCCN(CCC3CCOCC3)C2)c2c1CS(=O)(=O)c1ccccc1-2)N1CCOCC1 (configuration not stated)
25	O=C(c1nn([C@H]2CCCN(CCN3CCC(F)CC3)C2)c2c1CS(=O)(=O)c1ccccc1-2)N1CCOCC1
16	O=C(c1nn([C@H]2CCCN(CCN3CCOCC3)C2)c2c1CS(=O)(=O)c1c(F)cccc1-2)N1CCOCC1
13	O=C(c1nn([C@H]2CCCN(CC3CCOCC3)C2)c2c1CS(=O)(=O)c1ncccc1-2)N1CCOCC1
